pEC50, pIC50: −log10 of the molar value.

Glycogen synthase kinase-3 beta (Homo sapiens, UniProt P49841), sequence (P49841 whole entry): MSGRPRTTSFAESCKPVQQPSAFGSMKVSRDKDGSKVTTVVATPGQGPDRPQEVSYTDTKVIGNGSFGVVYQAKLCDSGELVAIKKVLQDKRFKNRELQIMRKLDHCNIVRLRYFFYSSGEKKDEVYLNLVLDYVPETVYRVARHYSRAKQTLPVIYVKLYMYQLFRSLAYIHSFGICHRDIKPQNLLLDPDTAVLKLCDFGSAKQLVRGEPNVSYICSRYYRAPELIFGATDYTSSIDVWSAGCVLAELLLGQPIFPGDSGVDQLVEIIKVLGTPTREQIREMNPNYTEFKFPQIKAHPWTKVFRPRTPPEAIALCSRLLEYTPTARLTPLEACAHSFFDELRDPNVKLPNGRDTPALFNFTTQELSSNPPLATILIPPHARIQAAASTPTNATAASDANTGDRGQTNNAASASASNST

The target of the first assay is Glycogen synthase kinase-3 beta (Rattus norvegicus, UniProt P18266). Nature of the assay: Effective concentration to increase glycogen deposition in rat skeletal muscle L6 myoblast cells. The assay is classed as functional, cell-based.
Glycogen synthase kinase-3 beta (Rattus norvegicus, UniProt P18266), sequence (P18266 whole entry): as the sequence (P49841 whole entry) above, with V240M, T390P, T392A, A400T, T402A counted along it
One may read the pEC50 as the negative decadic logarithm of the EC50, by convention in mol/L. `COc1cccc(Nc2nccc(-c3cnn4ncccc34)n2)c1` [PYRAZOLOPYRIDAZINE 1] showed a pEC50 of 5.89.

With `Clc1cc(Cl)cc(Nc2nccc(-c3cnn4ncccc34)n2)c1`, the negative-log EC50 (pEC50) was 6.00.

Compound `c1cnn2ncc(-c3ccnc(Nc4ccc5c(c4)OCCO5)n3)c2c1` [GW806290X] showed a pEC50 of 6.10.

In the case of `Fc1ccc(Nc2nccc(-c3c(-c4ccccc4)nn4ncccc34)n2)cc1F`, the pEC50 was 5.38.

Take `Cc1ccc2c(-c3ccnc(Nc4ccc(F)c(F)c4)n3)c(-c3ccccc3)nn2n1`: the pEC50 is 5.47.

`COc1ccc(Nc2nccc(-c3cnn4ncccc34)n2)cc1OC` [PYRAZOLOPYRIDAZINE 2]: the pEC50 is 5.82.

Regarding `FC(F)(F)c1cc(Nc2nccc(-c3cnn4ncccc34)n2)ccc1Cl`, the pEC50 was 6.00.

`Cc1cc(C)cc(Nc2nccc(-c3cnn4ncccc34)n2)c1`: the pEC50 is 5.74.

In turn, `c1ccc(Nc2nccc(-c3c(-c4ccccc4)nn4ncccc34)n2)cc1` had a pEC50 of 5.80.

In turn, `c1ccc(Nc2nccc(-c3cnn4ncccc34)n2)cc1` gave a pEC50 of 5.54.

Compound `FC(F)(F)c1cccc(Nc2nccc(-c3c(-c4ccccc4)nn4ncccc34)n2)c1` gave a pEC50 of 5.68.

`COc1cc(Nc2nccc(-c3cnn4ncccc34)n2)cc(C(F)(F)F)c1`: the pEC50 is 5.92.

`Cc1ccc2c(-c3ccnc(Nc4cccc(C(F)(F)F)c4)n3)c(-c3ccc(F)cc3)nn2n1` gave a pEC50 of 5.17.

Take `Fc1cc(F)cc(Nc2nccc(-c3cnn4ncccc34)n2)c1`: the pEC50 was 6.00.

`Fc1ccc(-c2nn3ncccc3c2-c2ccnc(Nc3cccc(C(F)(F)F)c3)n2)cc1` had a pEC50 of 5.55.

The compound `Cc1ccc2c(-c3ccnc(Nc4ccccc4)n3)c(-c3ccccc3)nn2n1` gave a pEC50 of 5.44.

Another assay has as its target Glycogen synthase kinase-3 beta (Homo sapiens, UniProt P49841).
Description: Binding affinity for human glycogen synthase kinase 3 beta
In general, pIC50 refers to the negative decadic logarithm of the IC50, by convention in mol/L. As for `Fc1ccc(Nc2nccc(-c3c(-c4ccccc4)nn4ncccc34)n2)cc1F`, the pIC50 was 8.00.

The compound `Cc1ccc2c(-c3ccnc(Nc4ccc(F)c(F)c4)n3)c(-c3ccccc3)nn2n1` showed a pIC50 of 7.52.

In turn, `COc1ccc(Nc2nccc(-c3cnn4ncccc34)n2)cc1OC` [PYRAZOLOPYRIDAZINE 2] had a pIC50 of 8.00.

For the compound `c1ccc(Nc2nccc(-c3c(-c4ccccc4)nn4ncccc34)n2)cc1`, the pIC50 was 8.00.

Compound `FC(F)(F)c1cccc(-c2nn3ncccc3c2-c2ccnc(Nc3ccc(Cl)c(C(F)(F)F)c3)n2)c1` had a pIC50 of 6.00.

`FC(F)(F)c1ccc(-c2nn3ncccc3c2-c2ccnc(Nc3ccc4c(c3)OCCO4)n2)cc1` [GW828525X] had a pIC50 of less than 4.50.

In the case of `FC(F)(F)c1cccc(Nc2nccc(-c3c(-c4ccccc4)nn4ncccc34)n2)c1`, the pIC50 is 8.00.

`Cc1ccc2c(-c3ccnc(Nc4cccc(C(F)(F)F)c4)n3)c(-c3ccc(F)cc3)nn2n1`: the negative logarithm of the IC50 (pIC50) is 7.70.

`Fc1ccc(-c2nn3ncccc3c2-c2ccnc(Nc3cccc(C(F)(F)F)c3)n2)cc1`: the pIC50 was 7.70.

The compound `Cc1ccc2c(-c3ccnc(Nc4ccccc4)n3)c(-c3ccc(C(F)(F)F)cc3)nn2n1` showed a pIC50 of less than 4.50.

For the compound `CCOc1ccc2c(-c3ccnc(Nc4cc(OC)cc(C(F)(F)F)c4)n3)cnn2n1` [GW807982X], the pIC50 was 5.50.

`FC(F)(F)c1cccc(-c2nn3ncccc3c2-c2ccnc(Nc3ccccc3)n2)c1` showed a negative logarithm of the IC50 (pIC50) of 6.82.

As for `Cc1ccc2c(-c3ccnc(Nc4ccc5c(c4)OCCO5)n3)c(-c3ccc(F)cc3)nn2n1`, the pIC50 is 8.00.

For `Cc1ccc2c(-c3ccnc(Nc4ccccc4)n3)c(-c3ccccc3)nn2n1`, the pIC50 was 7.30.

`c1ccc(Nc2nccc(-c3c(C4CCCCC4)nn4ncccc34)n2)cc1`: the pIC50 is less than 4.70.

With `CCCOc1ccc2c(-c3ccnc(Nc4cccc(C(F)(F)F)c4)n3)cnn2n1`, the pIC50 is 6.10.

For the compound `COc1ccc2c(-c3ccnc(Nc4ccc(C#N)cc4)n3)cnn2n1`, the pIC50 is 7.30.

Compound `Cc1ccc2c(-c3ccnc(Nc4ccc5c(c4)OCCO5)n3)c(-c3ccc(C(F)(F)F)cc3)nn2n1` [GW832467X] had a pIC50 of less than 4.50.

In the case of `Clc1ccc(-c2nn3ncccc3c2-c2ccnc(Nc3ccc4c(c3)OCCO4)n2)cc1`, the pIC50 is 6.10.

`Fc1cc(F)cc(Nc2nccc(-c3c(-c4ccccc4)nn4ncccc34)n2)c1` showed a pIC50 of 8.00.

The compound `Fc1ccc(Nc2nccc(-c3c(-c4ccc(Cl)cc4)nn4ncccc34)n2)cc1F` showed a pIC50 of 6.00.

In another assay the target is Cyclin-dependent kinase 2 (Homo sapiens, UniProt P24941).
In the case of `Clc1cc(Cl)cc(Nc2nccc(-c3cnn4ncccc34)n2)c1`, the pIC50 was 6.51.

`Fc1ccc(Nc2nccc(-c3c(-c4ccccc4)nn4ncccc34)n2)cc1F` had a pIC50 of less than 4.70.

`Cc1ccc2c(-c3ccnc(Nc4ccc(F)c(F)c4)n3)c(-c3ccccc3)nn2n1` showed a pIC50 of less than 4.70.

Compound `COc1ccc(Nc2nccc(-c3cnn4ncccc34)n2)cc1OC` [PYRAZOLOPYRIDAZINE 2] showed a pIC50 of 7.30.

Regarding `FC(F)(F)c1cc(Nc2nccc(-c3cnn4ncccc34)n2)ccc1Cl`, the pIC50 was 8.00.

For `c1ccc(Nc2nccc(-c3c(-c4ccccc4)nn4ncccc34)n2)cc1`, the pIC50 is 5.40.

With `FC(F)(F)c1cccc(-c2nn3ncccc3c2-c2ccnc(Nc3ccc(Cl)c(C(F)(F)F)c3)n2)c1`, the negative-log IC50 (pIC50) was less than 4.70.

On to `FC(F)(F)c1ccc(-c2nn3ncccc3c2-c2ccnc(Nc3ccc4c(c3)OCCO4)n2)cc1` [GW828525X], for which the pIC50 was less than 4.70.

The compound `FC(F)(F)c1cccc(Nc2nccc(-c3c(-c4ccccc4)nn4ncccc34)n2)c1` had a pIC50 of less than 4.70.

Turning to `COc1cc(Nc2nccc(-c3cnn4ncccc34)n2)cc(C(F)(F)F)c1`, the pIC50 was 8.00.

For `Cc1ccc2c(-c3ccnc(Nc4cccc(C(F)(F)F)c4)n3)c(-c3ccc(F)cc3)nn2n1`, the pIC50 is less than 4.70.

The compound `Fc1cc(F)cc(Nc2nccc(-c3cnn4ncccc34)n2)c1` had a pIC50 of 9.00.

In turn, `Fc1ccc(-c2nn3ncccc3c2-c2ccnc(Nc3cccc(C(F)(F)F)c3)n2)cc1` showed a pIC50 of less than 4.70.

Regarding `Cc1ccc2c(-c3ccnc(Nc4ccccc4)n3)c(-c3ccc(C(F)(F)F)cc3)nn2n1`, the pIC50 is less than 4.70.

`CCOc1ccc2c(-c3ccnc(Nc4cc(OC)cc(C(F)(F)F)c4)n3)cnn2n1` [GW807982X] gave a pIC50 of less than 4.70.

For the compound `FC(F)(F)c1cccc(-c2nn3ncccc3c2-c2ccnc(Nc3ccccc3)n2)c1`, the pIC50 was less than 4.70.

In turn, `Cc1ccc2c(-c3ccnc(Nc4ccc5c(c4)OCCO5)n3)c(-c3ccc(F)cc3)nn2n1` gave a pIC50 of less than 4.70.

For the compound `c1ccc(Nc2nccc(-c3c(C4CCCCC4)nn4ncccc34)n2)cc1`, the pIC50 was less than 4.70.

`CCCOc1ccc2c(-c3ccnc(Nc4cccc(C(F)(F)F)c4)n3)cnn2n1` showed a pIC50 of 5.90.

In turn, `COc1ccc2c(-c3ccnc(Nc4ccc(C#N)cc4)n3)cnn2n1` had a pIC50 of 6.30.

`Cc1ccc2c(-c3ccnc(Nc4ccc5c(c4)OCCO5)n3)c(-c3ccc(C(F)(F)F)cc3)nn2n1` [GW832467X] had a pIC50 of less than 4.70.

`Clc1ccc(-c2nn3ncccc3c2-c2ccnc(Nc3ccc4c(c3)OCCO4)n2)cc1` had a pIC50 of less than 4.70.

On to `Fc1cc(F)cc(Nc2nccc(-c3c(-c4ccccc4)nn4ncccc34)n2)c1`, for which the pIC50 is less than 4.70.

Compound `Fc1ccc(Nc2nccc(-c3c(-c4ccc(Cl)cc4)nn4ncccc34)n2)cc1F` had a pIC50 of less than 4.70.
